Measured values published in US8691972B2, “Compounds and synthesis of tellurium-derivatized oligonucleotides for structural and functional studies” (priority 2009, dated 2014).
Several values for one entry are separate records, joined by “and”; a condition that tells them apart may be missing. Identical values can stand only once.

Experiments:
[1] = system: 3′-CGGACAAGAAG-5′ (complementary DNA strand); assay: Thermo-denaturation (UV-melting, 260 nm) of non-self-complementary DNA duplex; format: physicochemical; settings: for average Tm (melting temperature) of the duplex: duplex 5′-C(2′-TeX-dU)TCTTGTCCG-3′ & 3′-CGGACAAGAAG-5′, four measurements, 50 mM NaCl, 10 mM phosphate pH 6.5, 0.1 mM EDTA, 10 mM MgCl2, 0.5° C./min
Method: (§1) Solution of the duplex DNA (2 uM) was prepared by dissolving the DNAs in a buffer containing 50 mM NaCl, 10 mM NaH2PO4—Na2HPO4 (pH 6.5), 0.1 mM EDTA and 10 mM MgCl2. The solution was heated to 70° C. for 2 min and cooled slowly to room temperature, followed by storing at 4° C. for overnight before measurement. The Tm curves were acquired at 260 nm by heating the samples from 5 to 70° C. at a rate of 0.5° C./min using Cary 300 UV-Visible Spectrophotometer with a temperature controller. […] The samples (1 mM duplex) were heated from 6 to 75° C. with a rate of 0.5° C./min. The red, blue and green curves represent the native, 2′-TeMe and 2′-TePh duplex, respectively, and are labelled in FIG. 6. The average Tm (four measurements) for each duplex is: 44.0±0.1° C. (native), 40.7±0.1° C. (2′-TeMe) and 36.8±0.2° C. (2′-TePh). […] The samples (1 mM duplex) were heated from 6 to 70° C. with a rate of 0.5° C./min. The circle (red), diamond (blue) and hexagon (purple) curves represent the native, 2′-TeMe and 2′-TePh DNA duplexes, respectively, with the averaged Tm (four times): 39.4° C. (native), 28.6° C. (2′-TeMe) and 23.4° C. (2′-TePh).

[2] = system: self-complementary duplex [5′-G(2′-TeX-dU)GTACAC-3′]2; assay: Thermo-denaturation (UV-melting, 260 nm) of self-complementary DNA duplex; format: physicochemical; settings: for averaged Tm of the duplex: self-complementary 8-mer 5′-G(2′-TeX-dU)GTACAC-3′, two modifications per duplex, four times, 0.5° C./min; for Tm decrease per modification: self-complementary duplex [5′-G(2′-TeX-dU)GTACAC-3′]2, compared with native; for Tm decrease compared with the native duplex: self-complementary duplex [5′-G(2′-TeX-dU)GTACAC-3′]2, double Te-modification
Method: as §1

Row | Substance | average Tm (melting temperature) of the duplex [1] | difference in melting temperature between native and modified DNA ([1]; non-self-complementary duplex 5′-C(2′-TeX-dU)TCTTGTCCG-3′ and 5′-CGGACAAGA-AG-3′) | averaged Tm of the duplex [2] | Tm decrease per modification [2] | Tm decrease compared with the native duplex [2]
1 | 5′-C(2′-TeX-dU)TCTTGTCCG-3′&3′-CGGACAAGAAG-5′ [2′-TePh duplex] | 36.8±0.2 °C and 36.8 °C |  |  |  | 
2 | [5′-G(2′-TeX-dU)GTACAC-3′, X=Ph or Me]2 [2′-TeMe DNA duplex] |  |  | 28.6 °C | 5.0 °C | 10 °C
3 | [5′-G(2′-TeX-dU)GTACAC-3′, X=Ph or Me]2 [2′-TePh DNA duplex] |  |  | 23.4 °C | 7.5 °C | 15 °C

Next, values leading:

Row | average Tm (melting temperature) of the duplex [1] | difference in melting temperature between native and modified DNA ([1]; non-self-complementary duplex 5′-C(2′-TeX-dU)TCTTGTCCG-3′ and 5′-CGGACAAGA-AG-3′) | averaged Tm of the duplex [2] | Tm decrease per modification [2] | Tm decrease compared with the native duplex [2] | Substance
4 | 40.7±0.1 °C and 40.7 °C | 3.3 °C |  |  |  | 5′-C(2′-TeX-dU)TCTTGTCCG-3′&3′-CGGACAAGAAG-5′ [2′-TeMe duplex]
5 | 44.0±0.1 °C and 44.0 °C |  |  |  |  | 5′-C(2′-TeX-dU)TCTTGTCCG-3′&3′-CGGACAAGAAG-5′ [native duplex, reference compound]
